This is an account of results in patent US20250084097A1, “MACROCYCLIC AMIDE COMPOUNDS AND APPLICATION THEREOF” (Medshine Discovery Inc., priority 2021, published 2025).

Like-named read-outs stand apart in the source and are kept apart here.

Experiment in all cases: Cell proliferation inhibition, CellTiter-Glo
Holding throughout (type): cell-based
In general terms: Cellular ATP, detected with luciferase, serves as a proxy for viable cell number.

For assay [1], the target named is Ba/F3-FL-EGFR (L858R) (Homo sapiens, UniProt P00533, L858R, cells depend on it). To be noted: 72 hours, read-out: Cell half-maximal inhibition concentration IC50 Ba/F3-FL-EGFR (L858R). The protocol: (§1) AdenosineTri-Phosphate (ATP) is an energy carrier shared by various life activities in nature, and is the smallest unit of energy storage and transfer. The CellTiter-Glo™ living cell assay kit uses luciferase as a detector, and luciferase requires the participation of ATP in the process of luminescence. CellTiter-Glo™ reagent is added to a cell culture medium, and the luminescence value is measured. The light signal is directly proportional to the amount of ATP in the system, and ATP is positively correlated with the number of living cells. Therefore, cell proliferation can be detected by detecting ATP content with the CellTiter-Glo kit. In this assay, the cell lines were Ba/F3-FL-EGFR (L858R/T790M/C797S), Ba/F3-FL-EGFR (WT), Ba/F3-FL-EGFR (L858R), Ba/F3-FL-EGFR (del19-S752-I759), Ba/F3-FL-EGFR (del19-E746-A750/T790M/C797S), Ba/F3-FL-EGFR (L858R/T790M), Ba/F3-FL-EGFR (del19-E746-A750/T790M), Ba/F3-TEL-EGFR (L858R/C797S), Ba/F3-FL-EGFR (del19-E746-A750/C797S) stably transfected cell lines.
Sequence of Ba/F3-FL-EGFR (L858R) (P00533 whole entry L858R): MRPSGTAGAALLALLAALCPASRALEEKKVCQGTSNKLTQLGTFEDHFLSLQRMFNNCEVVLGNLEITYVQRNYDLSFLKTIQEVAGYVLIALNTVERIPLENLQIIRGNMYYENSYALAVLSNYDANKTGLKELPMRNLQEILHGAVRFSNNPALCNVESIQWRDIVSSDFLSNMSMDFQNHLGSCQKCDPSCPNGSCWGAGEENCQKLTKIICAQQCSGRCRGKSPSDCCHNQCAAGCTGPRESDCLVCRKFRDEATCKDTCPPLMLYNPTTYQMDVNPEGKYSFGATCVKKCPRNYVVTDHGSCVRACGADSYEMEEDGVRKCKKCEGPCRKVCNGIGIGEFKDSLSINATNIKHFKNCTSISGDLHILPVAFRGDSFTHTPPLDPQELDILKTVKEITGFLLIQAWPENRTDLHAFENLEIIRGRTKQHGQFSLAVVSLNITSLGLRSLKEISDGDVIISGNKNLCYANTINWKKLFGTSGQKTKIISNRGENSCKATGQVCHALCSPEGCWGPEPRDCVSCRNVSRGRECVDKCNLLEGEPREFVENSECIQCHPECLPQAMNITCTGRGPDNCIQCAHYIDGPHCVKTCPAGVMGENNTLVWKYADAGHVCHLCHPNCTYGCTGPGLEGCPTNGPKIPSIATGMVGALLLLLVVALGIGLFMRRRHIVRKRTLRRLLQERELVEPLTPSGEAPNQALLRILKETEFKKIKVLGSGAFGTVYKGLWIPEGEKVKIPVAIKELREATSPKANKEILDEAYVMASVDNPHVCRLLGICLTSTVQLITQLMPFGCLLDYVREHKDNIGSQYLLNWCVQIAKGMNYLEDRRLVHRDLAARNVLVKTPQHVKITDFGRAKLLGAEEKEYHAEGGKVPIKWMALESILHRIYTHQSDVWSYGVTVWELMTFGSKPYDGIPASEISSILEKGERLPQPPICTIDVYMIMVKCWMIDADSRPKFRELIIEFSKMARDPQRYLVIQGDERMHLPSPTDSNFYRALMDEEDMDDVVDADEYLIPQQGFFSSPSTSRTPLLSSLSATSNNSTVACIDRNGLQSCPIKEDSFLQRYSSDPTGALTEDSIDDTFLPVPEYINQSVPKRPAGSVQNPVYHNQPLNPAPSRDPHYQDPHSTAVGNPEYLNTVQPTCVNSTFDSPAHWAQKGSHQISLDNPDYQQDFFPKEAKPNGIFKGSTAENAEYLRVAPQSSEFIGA
(§2) The cell lines were cultured in an incubator at 37° C. and 5% CO2. The cells were periodically passaged, and cells in logarithmic growth phase were taken for plating.
(§3) a) DMSO was used to prepare a 10 mM solution of the compound to be tested, and then the compound to be tested was diluted to 0.3 or 1 mM with DMSO.
(§4) b) Preparation of 1000× compound storage plate (tube): DMSO was used to dilute by 3-fold gradient from the highest concentration to the lowest concentration, with a total of 9 concentrations.
(§5) c) Preparation of 20× compound working solution: 49 μL of cell culture medium was added to a flat-bottomed 96-well transparent drug plate, and 1 μL of compound was pipetted from the 1000× compound storage plate to the cell culture medium of the 96-well transparent drug plate. 1 μL of DMSO was added to the vehicle control. After adding compound or DMSO, the well content was mixed to uniform by aspiration and expelling with pipette.
(§6) a) Cells were stained with trypan blue and viable cells were counted. The cell viability rate was required to be above 90%.
(§7) b) 95 μL of cell suspension (2000 cells/well) was added to each well of the compound detection cell plate, and culture medium without cells (containing 0.1% DMSO) was added to the Min control well.
(§8) c) Dosing in the compound detection cell plate: 5 μL of 20× compound working solution was added to the cell culture plate. 5 μL of DMSO-cell culture mixture was added to the Max control. The final concentration of DMSO was 0.1%.
(§9) d) The culture plate was incubated in an incubator at 37° C., 5% CO2 for 72 hours.
(§10) The following steps were performed according to the instruction of Promega CellTiter-Glo luminescence cell viability detection kit (Promega-G7573). • a) The CellTiter-Glo buffer was thawed and allowed to stand to reach room temperature; • b) CellTiter-Glo substrate was allowed to stand to reach room temperature; • c) CellTiter-Glo buffer was added to CellTiter-Glo substrate in a bottle to dissolve the substrate to formulate CellTiter-Glo working solution; • d) The working solution was vortexed slowly for fully dissolution; • e) The cell culture plates were taken out and allowed to stand for 10 minutes to equilibrate to room temperature; • f) 50 μL (equal to half the volume of cell culture solution in each well) of Cell Titer-Glo working solution was added into each well. • g) The culture plates were shaken on an orbital shaker for 2 minutes to induce cell lysis; • h) The culture plates were left at room temperature for 10 minutes to stabilize the luminescence signal; • i) The luminous signal was detected on the PerkinElmer EnVision®2105 plate reader.
(§11) By PerkinElmer EnVision®2105 reading, the corresponding […] value RLU for each well was yielded.
(§12) Cell proliferation inhibition rate (Inhibition Rate) data were processed using the following formula:
(§13) Inhibition Rate (Inh %)=100−(RLUDrug−RLUMin)/(RLUMax−RLUMin)*100%. […]

Assay [2] concerns the target Ba/F3-FL-EGFR (L858R/T790M) (Homo sapiens, UniProt P00533, T790M/L858R, cells depend on it). On the procedure: as §1, §2, §3, §4, §5, §6, §7, §8, §9, §10, §11, §12, §13
The target in assay [3] is Ba/F3-FL-EGFR (WT) (Homo sapiens, UniProt P00533). The protocol: as §1, §2, §3, §4, §5, §6, §7, §8, §9, §10, §11, §12, §13
Assay [4] has as its target Ba/F3-FL-EGFR (del19-E746-A750/T790M) (Homo sapiens, UniProt P00533, DEL746-750/T790M, cells depend on it). On the procedure: as §1, §2, §3, §4, §5, §6, §7, §8, §9, §10, §11, §12, §13
Assay [5] has as its target Ba/F3-FL-EGFR (del19-E746-A750/T790M/C797S) (Homo sapiens, UniProt P00533, DEL746-750/T790M/C797S, cells depend on it). The settings on record: 72 hours, read-out: Cell half-maximal inhibition concentration IC50 Ba/F3-FL-EGFR (del19-E746-A750/T790M/C797S). On the procedure: as §1, §2, §3, §4, §5, §6, §7, §8, §9, §10, §11, §12, §13
Assay [6] has as its target Ba/F3-FL-EGFR (del19-S752-I759) (Homo sapiens, UniProt P00533, DEL752-759, cells depend on it). To be noted: 72 hours, read-out: Cell half-maximal inhibition concentration IC50 Ba/F3-FL-EGFR (del19-S752-I759). The protocol:
as §1, §2, §3, §4, §5, §6, §7, §8, §9, §10, §11, §12, §13

In assay [7] the target is T1, Ba/F3-TEL-EGFR (L858R/C797S) (Homo sapiens, UniProt P00533, C797S/L858R, cells depend on it).
T1 construct: fused on or other part: TEL (ETV6) N-terminal oligomerising part fused to the EGFR kinase part; P41212 (Transcription factor ETV6)
T1 sequence (P00533 whole entry C797S/L858R, the tested form may be a part): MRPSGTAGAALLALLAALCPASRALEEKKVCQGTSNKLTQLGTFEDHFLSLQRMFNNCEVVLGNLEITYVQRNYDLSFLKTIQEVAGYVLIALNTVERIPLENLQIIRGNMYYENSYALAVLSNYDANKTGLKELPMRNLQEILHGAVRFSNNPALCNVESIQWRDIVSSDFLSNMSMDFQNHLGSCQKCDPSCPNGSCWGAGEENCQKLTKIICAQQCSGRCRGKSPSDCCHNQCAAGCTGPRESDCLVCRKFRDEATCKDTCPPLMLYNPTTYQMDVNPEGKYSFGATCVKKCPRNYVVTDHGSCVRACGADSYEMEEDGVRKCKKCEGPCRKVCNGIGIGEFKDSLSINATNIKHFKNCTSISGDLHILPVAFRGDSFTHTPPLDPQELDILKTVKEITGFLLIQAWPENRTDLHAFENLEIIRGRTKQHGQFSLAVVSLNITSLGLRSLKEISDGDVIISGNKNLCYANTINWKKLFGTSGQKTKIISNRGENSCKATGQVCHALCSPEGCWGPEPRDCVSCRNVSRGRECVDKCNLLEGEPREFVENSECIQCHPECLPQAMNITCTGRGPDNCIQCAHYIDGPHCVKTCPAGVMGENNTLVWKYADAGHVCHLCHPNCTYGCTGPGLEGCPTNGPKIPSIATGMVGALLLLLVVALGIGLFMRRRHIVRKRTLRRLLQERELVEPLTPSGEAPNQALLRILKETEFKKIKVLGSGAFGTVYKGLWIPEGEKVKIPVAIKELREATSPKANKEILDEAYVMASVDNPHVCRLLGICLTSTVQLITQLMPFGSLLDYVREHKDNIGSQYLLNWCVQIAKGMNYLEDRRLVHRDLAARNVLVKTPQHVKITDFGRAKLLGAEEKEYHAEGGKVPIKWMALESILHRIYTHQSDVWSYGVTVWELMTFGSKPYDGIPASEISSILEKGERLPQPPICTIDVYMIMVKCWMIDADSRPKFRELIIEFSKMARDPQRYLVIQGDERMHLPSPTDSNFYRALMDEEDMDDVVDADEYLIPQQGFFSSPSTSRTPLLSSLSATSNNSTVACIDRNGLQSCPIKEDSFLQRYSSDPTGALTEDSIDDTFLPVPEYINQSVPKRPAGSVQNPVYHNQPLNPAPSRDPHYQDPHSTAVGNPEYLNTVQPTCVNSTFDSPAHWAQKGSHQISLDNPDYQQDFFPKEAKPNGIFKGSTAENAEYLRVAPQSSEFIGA
On the procedure:
as §1, §2, §3, §4, §5, §6, §7, §8, §9, §10, §11, §12, §13

Setting [8] is: 72 hours, read-out: Cell half-maximal inhibition concentration IC50 Ba/F3-FL-EGFR (L858R/T790M).
[9] abbreviates: 72 hours, read-out: Cell half-maximal inhibition concentration IC50 Ba/F3-FL-EGFR (WT).
Setting [10] is: 72 hours, read-out: Cell half-maximal inhibition concentration IC50 Ba/F3-FL-EGFR (del19-E746-A750/T790M).
The mark [11] stands for this setting: 72 hours, read-out: Cell half-maximal inhibition concentration IC50 Ba/F3-TEL-EGFR (L858R/C797S).

Sequence of Ba/F3-FL-EGFR (del19-S752-I759) (P00533 with tags, fused parts or gaps DEL752-759): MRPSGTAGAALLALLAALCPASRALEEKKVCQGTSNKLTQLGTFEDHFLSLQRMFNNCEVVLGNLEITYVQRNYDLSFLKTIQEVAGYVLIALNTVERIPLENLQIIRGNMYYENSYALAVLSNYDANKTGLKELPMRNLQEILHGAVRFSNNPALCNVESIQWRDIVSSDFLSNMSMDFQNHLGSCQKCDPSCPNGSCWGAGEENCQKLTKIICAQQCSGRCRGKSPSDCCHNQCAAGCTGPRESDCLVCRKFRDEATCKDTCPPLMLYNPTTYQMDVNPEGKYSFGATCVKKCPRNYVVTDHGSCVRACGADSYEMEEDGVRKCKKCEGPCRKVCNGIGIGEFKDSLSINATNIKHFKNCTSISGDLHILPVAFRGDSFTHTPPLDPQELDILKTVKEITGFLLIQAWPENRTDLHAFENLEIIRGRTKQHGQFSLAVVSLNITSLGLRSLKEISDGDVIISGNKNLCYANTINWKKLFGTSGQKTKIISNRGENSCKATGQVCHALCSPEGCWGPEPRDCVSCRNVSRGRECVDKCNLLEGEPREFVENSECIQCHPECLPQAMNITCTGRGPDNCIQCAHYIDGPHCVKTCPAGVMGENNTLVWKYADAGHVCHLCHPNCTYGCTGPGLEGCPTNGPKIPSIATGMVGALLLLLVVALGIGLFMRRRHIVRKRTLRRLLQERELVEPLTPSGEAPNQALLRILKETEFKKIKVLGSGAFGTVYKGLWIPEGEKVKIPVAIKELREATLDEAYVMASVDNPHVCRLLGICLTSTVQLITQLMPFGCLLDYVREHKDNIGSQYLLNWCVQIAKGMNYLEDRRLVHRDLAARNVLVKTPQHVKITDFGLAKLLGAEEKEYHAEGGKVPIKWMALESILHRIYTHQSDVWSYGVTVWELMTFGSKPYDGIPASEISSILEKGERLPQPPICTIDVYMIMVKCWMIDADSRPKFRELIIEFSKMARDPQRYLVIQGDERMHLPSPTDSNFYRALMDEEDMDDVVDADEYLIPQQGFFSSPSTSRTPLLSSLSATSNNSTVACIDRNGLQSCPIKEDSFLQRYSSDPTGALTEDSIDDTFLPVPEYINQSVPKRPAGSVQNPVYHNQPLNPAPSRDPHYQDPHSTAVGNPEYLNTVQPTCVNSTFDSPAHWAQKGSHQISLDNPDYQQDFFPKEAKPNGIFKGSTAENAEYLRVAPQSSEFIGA
Sequence of Ba/F3-FL-EGFR (del19-E746-A750/T790M/C797S) (P00533 with tags, fused parts or gaps DEL746-750/T790M/C797S): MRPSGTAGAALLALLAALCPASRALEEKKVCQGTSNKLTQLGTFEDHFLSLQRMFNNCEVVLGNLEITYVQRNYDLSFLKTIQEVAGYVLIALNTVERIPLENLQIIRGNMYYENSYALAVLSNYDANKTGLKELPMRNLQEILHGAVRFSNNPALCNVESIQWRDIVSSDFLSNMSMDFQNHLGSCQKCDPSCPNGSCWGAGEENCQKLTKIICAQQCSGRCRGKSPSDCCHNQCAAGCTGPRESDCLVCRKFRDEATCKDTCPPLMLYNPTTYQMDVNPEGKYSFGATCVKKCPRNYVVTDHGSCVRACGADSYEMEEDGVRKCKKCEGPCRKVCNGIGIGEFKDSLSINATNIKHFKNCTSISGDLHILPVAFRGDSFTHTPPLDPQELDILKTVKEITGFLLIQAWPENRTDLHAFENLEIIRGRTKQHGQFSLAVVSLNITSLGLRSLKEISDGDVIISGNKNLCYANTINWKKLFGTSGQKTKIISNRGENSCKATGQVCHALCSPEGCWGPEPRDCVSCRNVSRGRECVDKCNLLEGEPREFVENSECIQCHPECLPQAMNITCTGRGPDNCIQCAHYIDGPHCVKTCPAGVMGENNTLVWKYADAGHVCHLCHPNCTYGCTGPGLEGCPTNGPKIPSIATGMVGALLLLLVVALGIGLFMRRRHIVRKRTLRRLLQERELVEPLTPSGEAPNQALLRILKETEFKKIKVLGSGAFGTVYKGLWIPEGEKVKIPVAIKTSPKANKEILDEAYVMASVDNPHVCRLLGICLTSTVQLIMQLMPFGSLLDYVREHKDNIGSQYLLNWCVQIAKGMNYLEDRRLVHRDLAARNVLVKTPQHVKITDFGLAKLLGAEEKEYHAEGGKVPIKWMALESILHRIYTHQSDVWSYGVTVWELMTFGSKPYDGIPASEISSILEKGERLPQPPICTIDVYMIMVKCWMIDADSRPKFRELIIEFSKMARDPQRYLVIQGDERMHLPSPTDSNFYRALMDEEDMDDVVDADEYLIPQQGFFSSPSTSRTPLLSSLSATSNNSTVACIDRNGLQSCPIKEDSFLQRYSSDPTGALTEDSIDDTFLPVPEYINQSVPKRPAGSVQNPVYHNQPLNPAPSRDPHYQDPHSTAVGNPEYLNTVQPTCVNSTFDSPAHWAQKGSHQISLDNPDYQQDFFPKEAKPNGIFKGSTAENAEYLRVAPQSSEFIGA

Take `Cc1cc2cc(n1)-c1cnn(C)c1OCCC[C@@H](C)CN1/C(=N/C2=O)Nc2ccc(N=S(C)(C)=O)cc21` [WX-006]: the GI50 turned out to be 18.6 nM in assay [1]; 12.9 nM in assay [2] (setting [8]); 111 nM in assay [3] (setting [9]); 0.8 nM in assay [4] (setting [10]); 0.6 nM in assay [5]; 15.4 nM in assay [6]. In addition, the GI50 in assay [7] (setting [11]) stood at 3.1 nM.
In the case of `Cc1cc2cc(n1)-c1cnn(C)c1OCCC[C@@H](C)CN1/C(=N/C2=O)Nc2ccc(N=S3(=O)CCOCC3)cc21` [WX-013], the GI50 was found to be 12.1 nM in assay [2] (read-out: Cell half-maximal inhibition concentration IC50 Ba/F3-FL-EGFR (L858R/T790M), 72 hours); 123 nM in assay [3] (read-out: Cell half-maximal inhibition concentration IC50 Ba/F3-FL-EGFR (WT), 72 hours); 0.6 nM in assay [4] (read-out: Cell half-maximal inhibition concentration IC50 Ba/F3-FL-EGFR (del19-E746-A750/T790M), 72 hours); 3.1 nM in assay [7] (read-out: Cell half-maximal inhibition concentration IC50 Ba/F3-TEL-EGFR (L858R/C797S), 72 hours).
Regarding `Cc1cc2cc(n1)-c1cnn(C)c1OCCC[C@@H](C)CN1/C(=N/C2=O)Nc2ccc(N=S3(=O)CCCC3)cc21` [WX-010 (trifluoroacetate)], the GI50 worked out at 14 nM in assay [1]; 10.5 nM in assay [2] (setting [8]); 86 nM in assay [3] (setting [9]); 0.4 nM in assay [4] (setting [10]); 0.8 nM in assay [5]; 11.2 nM in assay [6]. The GI50 in assay [7] (setting [11]) was determined as 3 nM.
`Cc1cc2cc(n1)-c1cnn(C)c1OCCC[C@@H](C)CN1/C(=N/C2=O)Nc2ccc(N=S(C)(C)=O)c(Cl)c21` [WX-019]: the GI50 in assay [1] was determined as 42.2 nM; in assay [2] (setting [8]), 16.8 nM; in assay [3] (setting [9]), 303 nM; in assay [4] (setting [10]), 2.9 nM; in assay [5] it was 1.3 nM; in assay [6] it was 15.6 nM. In addition, the GI50 in assay [7] (setting [11]) is 7.3 nM.
For the compound `Cc1cc2cc(n1)-c1cnn(C)c1OC[C@H]1CC[C@H](C1)CN1/C(=N/C2=O)Nc2ccc(N=S(C)(C)=O)cc21` (single isomer, unassigned) [WX-027A], the GI50 came to 39.6 nM in assay [1]; 14.3 nM in assay [2] (setting [8]); 295 nM in assay [3] (setting [9]); 1.9 nM in assay [4] (setting [10]); 1.2 nM in assay [5]; 12.9 nM in assay [6]. Also, the GI50 in assay [7] (setting [11]) amounted to 5.2 nM.
